# Reference: patent publication US9085606B2, “Beta amino acid derivatives as integrin antagonists” (Saint Louis University, priority 2012, dated 2015)
# Legend:
# [1] = target: T1, Recombinant human integrin αvβ5 (Homo sapiens, UniProt P06756+P18084); experiment: Solid Phase Receptor Assay for αvβ5 Function; settings: binding to vitronectin-coated plate; read-out: αvβ5 SPRA IC50
# T1 construct: purchased R&D Systems 2528-AV
# Experimental: Solid Phase Receptor Assay for αvβ5 Function.
# (§1) Wells were washed 3 times with 150 μL TBS+ and 150 μL of blocking buffer (TBS+ with 1% bovine serum albumin, Sigma A7906) were added. The plate was incubated for 1 hr at 37° C. and then washed 3× with TBS+ buffer. […] Compounds were diluted 1:100 into the integrin solution and then 50 μL added to empty wells of the washed vitronectin-coated plate according to a standard template with each sample repeated in triplicate. After incubation for two hours at room temperature, the plate was washed 3× with 150 μL of TBS+ buffer. To each well, 50 μL of biotinylated anti-αv antibody (R&D Systems, BAF1219) at 0.5 μg/mL in TBS+/0.1% BSA at 0.5 μg/mL were added and the plate covered and incubated for 1 hr at room temperature. After washing the plate 3× with 150 μL of TBS+ buffer, 50 μL of streptavidin-conjugated horseradish peroxidase (R&D Systems DY998) diluted in TBS+ blocking buffer were added to the wells and the plate incubated for 20 min at room temperature. The plate was washed 3× with TBS+ buffer followed by 50 μL of TMB substrate (Sigma T4444) added to each well and the plate incubated for 20 min at room temperature. The reaction was optionally stopped with 25 μL of Stop Solution (Sigma S5689). Plates were read by colorimetric detection at 650 nm wavelength using a Tecan Safire II plate reader.
# [2] = target: T2, Recombinant human integrin α5β1 (Homo sapiens, UniProt P05556+P08648); experiment: Solid Phase Receptor Assay for α5β1 Function; settings: binding to fibronectin-coated plate; read-out: α5β1 SPRA IC50
# T2 construct: purchased R&D Systems 3230-A5
# T2 sequence (P08648 42-995 limits assumed): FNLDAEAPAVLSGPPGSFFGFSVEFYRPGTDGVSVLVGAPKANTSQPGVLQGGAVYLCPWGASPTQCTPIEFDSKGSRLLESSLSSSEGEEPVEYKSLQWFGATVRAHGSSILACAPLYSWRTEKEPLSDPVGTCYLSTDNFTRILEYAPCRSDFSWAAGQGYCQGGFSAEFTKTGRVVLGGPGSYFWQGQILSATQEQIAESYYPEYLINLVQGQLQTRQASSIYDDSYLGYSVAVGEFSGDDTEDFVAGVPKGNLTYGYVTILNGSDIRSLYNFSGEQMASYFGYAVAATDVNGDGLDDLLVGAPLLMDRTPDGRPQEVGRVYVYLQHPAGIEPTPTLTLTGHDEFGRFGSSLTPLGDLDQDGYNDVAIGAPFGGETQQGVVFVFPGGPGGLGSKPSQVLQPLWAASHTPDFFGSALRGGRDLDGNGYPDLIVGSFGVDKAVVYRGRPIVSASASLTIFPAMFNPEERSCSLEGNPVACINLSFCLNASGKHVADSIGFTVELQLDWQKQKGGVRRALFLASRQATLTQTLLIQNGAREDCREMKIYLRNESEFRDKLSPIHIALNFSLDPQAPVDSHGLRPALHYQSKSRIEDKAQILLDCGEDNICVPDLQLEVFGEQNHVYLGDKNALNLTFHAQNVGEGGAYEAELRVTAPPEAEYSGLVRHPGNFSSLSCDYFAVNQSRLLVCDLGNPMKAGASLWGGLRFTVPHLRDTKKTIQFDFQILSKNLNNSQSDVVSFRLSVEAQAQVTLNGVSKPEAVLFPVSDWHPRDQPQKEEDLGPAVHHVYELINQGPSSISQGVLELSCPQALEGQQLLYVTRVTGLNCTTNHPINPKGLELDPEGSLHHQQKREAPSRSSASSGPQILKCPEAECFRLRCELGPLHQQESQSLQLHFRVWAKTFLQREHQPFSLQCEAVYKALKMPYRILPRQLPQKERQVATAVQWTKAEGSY
# T2 sequence (P05556 21-728 limits assumed): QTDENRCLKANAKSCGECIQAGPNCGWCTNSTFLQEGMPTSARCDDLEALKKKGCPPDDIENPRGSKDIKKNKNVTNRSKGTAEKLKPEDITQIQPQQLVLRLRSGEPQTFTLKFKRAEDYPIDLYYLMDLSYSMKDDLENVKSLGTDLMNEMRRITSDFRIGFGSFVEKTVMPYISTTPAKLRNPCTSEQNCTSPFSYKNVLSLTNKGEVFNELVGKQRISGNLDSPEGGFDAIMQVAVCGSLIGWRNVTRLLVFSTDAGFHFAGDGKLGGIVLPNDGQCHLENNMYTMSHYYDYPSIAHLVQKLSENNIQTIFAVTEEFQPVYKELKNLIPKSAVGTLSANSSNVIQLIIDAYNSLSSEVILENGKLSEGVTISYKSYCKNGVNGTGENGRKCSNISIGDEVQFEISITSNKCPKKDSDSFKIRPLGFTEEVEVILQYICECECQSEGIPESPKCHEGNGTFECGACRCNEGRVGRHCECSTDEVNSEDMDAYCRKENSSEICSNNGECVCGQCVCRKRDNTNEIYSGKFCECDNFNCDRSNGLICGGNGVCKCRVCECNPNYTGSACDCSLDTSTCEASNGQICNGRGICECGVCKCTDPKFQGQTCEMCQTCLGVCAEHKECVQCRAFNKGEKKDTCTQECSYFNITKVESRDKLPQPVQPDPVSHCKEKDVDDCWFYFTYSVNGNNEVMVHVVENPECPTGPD
# Experimental: Solid Phase Receptor Assay for α5β1 Function.
# Wells were washed 3 times with 150 μL TBS+ and 150 μl of blocking buffer (TBS+ with 1% bovine serum albumin, Sigma A7906) were added. The plate was incubated for 1 hr at 37° C. and then washed 3× with TBS+ buffer. […] Compounds were diluted 1:100 into the integrin solution and then 50 μL added to empty wells of the washed fibronectin-coated plate according to a standard template with each sample repeated in triplicate. After incubation for two hours at room temperature, the plate was washed 3× with 150 μL of TBS+ buffer. To each well, 50 μL of biotinylated anti-α5 antibody (R&D Systems, BAF1864) at 0.5 ug/mL in TBS+/0.1% BSA were added and the plate covered and incubated for 1 hr at room temperature. After washing the plate 3× with 150 μL of TBS+ buffer, 50 μL of streptavidin-conjugated horseradish peroxidase (R&D Systems, DY998) diluted in TBS+ blocking buffer were added to the wells and the plate incubated for 20 min at room temperature. The plate was washed 3× with TBS+ buffer followed by 50 μL of room temperature TMB substrate (Sigma, T444) added to each well and the plate incubated for 20 min at room temperature. The reaction was optionally stopped with 25 μL of Stop Solution (Sigma S5689). Plates were read by colorimetric detection at 650 nm wavelength using a Tecan Safire II plate reader.
# [3] = target: T3, Recombinant human integrin αvβ6 (Homo sapiens, UniProt P06756+P18564); experiment: Solid Phase Receptor Assay for αvβ6 Function; settings: binding to LAP-coated plate; read-out: αvβ6 SPRA IC50
# T3 construct: purchased R&D Systems 3817-AV
# T3 sequence (P06756 31-992 limits assumed): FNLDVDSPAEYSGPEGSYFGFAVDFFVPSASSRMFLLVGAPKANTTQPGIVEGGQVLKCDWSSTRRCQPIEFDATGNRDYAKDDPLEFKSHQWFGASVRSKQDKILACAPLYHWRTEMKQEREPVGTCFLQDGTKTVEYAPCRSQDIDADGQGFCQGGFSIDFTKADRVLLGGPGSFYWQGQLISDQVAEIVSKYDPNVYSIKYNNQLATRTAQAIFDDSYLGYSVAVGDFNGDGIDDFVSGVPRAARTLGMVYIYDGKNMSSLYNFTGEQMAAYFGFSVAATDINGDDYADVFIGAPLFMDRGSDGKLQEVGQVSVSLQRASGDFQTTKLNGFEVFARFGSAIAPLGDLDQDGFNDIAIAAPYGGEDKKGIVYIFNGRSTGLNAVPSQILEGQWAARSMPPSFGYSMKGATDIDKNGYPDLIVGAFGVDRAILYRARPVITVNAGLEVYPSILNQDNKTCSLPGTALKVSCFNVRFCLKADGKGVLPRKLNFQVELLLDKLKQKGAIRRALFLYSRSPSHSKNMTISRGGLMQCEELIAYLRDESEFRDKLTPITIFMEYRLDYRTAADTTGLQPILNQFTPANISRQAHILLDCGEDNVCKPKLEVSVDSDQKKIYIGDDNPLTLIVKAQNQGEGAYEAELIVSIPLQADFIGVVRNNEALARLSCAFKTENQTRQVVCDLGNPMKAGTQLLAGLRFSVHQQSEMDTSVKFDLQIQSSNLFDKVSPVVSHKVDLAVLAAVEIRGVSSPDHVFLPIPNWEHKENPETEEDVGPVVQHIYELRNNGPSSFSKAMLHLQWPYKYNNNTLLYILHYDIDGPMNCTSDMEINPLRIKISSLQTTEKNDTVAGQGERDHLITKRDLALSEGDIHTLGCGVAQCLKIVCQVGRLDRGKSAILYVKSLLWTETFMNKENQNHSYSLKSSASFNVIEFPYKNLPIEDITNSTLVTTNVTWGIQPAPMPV
# T3 sequence (P18564 22-707 limits assumed): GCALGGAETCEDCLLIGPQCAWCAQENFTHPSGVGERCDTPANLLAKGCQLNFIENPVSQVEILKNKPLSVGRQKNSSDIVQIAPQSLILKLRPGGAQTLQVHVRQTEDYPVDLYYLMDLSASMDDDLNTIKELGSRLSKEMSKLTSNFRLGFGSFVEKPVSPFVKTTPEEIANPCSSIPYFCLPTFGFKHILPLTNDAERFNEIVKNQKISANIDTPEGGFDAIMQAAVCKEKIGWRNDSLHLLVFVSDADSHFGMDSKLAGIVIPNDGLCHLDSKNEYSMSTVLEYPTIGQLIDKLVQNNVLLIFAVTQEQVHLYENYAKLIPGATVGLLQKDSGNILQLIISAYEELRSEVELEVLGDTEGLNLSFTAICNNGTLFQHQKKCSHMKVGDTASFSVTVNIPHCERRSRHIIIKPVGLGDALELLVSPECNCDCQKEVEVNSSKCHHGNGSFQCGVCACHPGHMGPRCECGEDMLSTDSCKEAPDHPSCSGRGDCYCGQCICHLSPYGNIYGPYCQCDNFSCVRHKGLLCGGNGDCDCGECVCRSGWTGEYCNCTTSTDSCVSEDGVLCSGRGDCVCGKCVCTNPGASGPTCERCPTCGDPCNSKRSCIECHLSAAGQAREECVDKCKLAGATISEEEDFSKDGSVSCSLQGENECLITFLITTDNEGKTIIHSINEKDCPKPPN
# Experimental: Solid Phase Receptor Assay for αvβ6 Function.
# as §1, with “150 μL TBS+, and 150” for “150 μL TBS+ and 150”, “at 37° C., and then” for “at 37° C. and then”, “the washed LAP-coated plate according” for “the washed vitronectin-coated plate according”, “TBS+/0.1% BSA were added” for “TBS+/0.1% BSA at 0.5 μg/mL were added”, “the plate was covered and” for “the plate covered and”, “peroxidase (R&D Systems, DY998) diluted” for “peroxidase (R&D Systems DY998) diluted”
# T1 sequence (P06756 31-992 limits assumed): as the sequence (P06756 31-992 limits assumed) above
# T1 sequence (P18084 24-719 limits assumed): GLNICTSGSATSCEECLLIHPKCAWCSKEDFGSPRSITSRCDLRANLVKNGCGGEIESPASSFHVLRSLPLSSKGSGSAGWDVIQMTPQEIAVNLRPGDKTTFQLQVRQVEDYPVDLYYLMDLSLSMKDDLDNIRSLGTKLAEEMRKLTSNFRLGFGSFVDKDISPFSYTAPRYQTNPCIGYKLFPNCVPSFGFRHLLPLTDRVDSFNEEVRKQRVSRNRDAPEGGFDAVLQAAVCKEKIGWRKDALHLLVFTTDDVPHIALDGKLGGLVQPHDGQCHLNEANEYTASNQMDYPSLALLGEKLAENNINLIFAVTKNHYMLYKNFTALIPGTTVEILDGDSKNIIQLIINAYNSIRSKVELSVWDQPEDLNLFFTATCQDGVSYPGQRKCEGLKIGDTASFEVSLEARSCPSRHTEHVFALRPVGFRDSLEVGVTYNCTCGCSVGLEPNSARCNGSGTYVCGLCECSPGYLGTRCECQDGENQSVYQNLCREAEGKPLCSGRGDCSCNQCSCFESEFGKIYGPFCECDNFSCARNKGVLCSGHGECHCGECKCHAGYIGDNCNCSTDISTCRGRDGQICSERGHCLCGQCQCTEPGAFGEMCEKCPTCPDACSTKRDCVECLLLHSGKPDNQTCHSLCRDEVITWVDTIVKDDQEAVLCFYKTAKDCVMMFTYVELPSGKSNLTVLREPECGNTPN
SMILES,IC50 [1],IC50 [2],IC50 [3]
"CC(C)(c1cc(Cl)cc([C@H](CC(=O)O)NC(=O)CNC(=O)c2cc(O)cc(NC3=NCC(O)CN3)c2)c1)C(F)(F)F (stereo partly drawn) [Example 24, (3S)-3-(3-chloro-5-(1,1,1-trifluoro-2-methylpropan-2-yl)phenyl)-3-(2-(3-hydroxy-5-((5-hydroxy-1,4,5,6-tetrahydropyrimidin-2-yl)amino)benzamido)acetamido)propanoic acid]",0.3 nM,0.3 nM,0.4 nM
"CC(O)(c1cc([C@H](CC(=O)O)NC(=O)CNC(=O)c2cc(O)cc(NC3=NCC(O)CN3)c2)cc(C(F)(F)F)c1)C(F)(F)F (stereo partly drawn) [Example 25, (3S)-3-(2-(3-hydroxy-5-((5-hydroxy-1,4,5,6-tetrahydropyrimidin-2-yl)amino)benzamido)acetamido)-3-(3-(1,1,1-trifluoro-2-hydroxypropan-2-yl)-5-(trifluoromethyl)phenyl)propanoic acid]",1.3 nM,0.4 nM,0.4 nM
"O=C(O)C[C@H](NC(=O)CNC(=O)c1cc(O)cc(NC2=NCC(O)CN2)c1)c1cc(Br)cc(C2(C(F)F)CC2)c1 (stereo partly drawn) [Example 26, (3S)-3-(3-bromo-5-(1-(difluoromethyl)cyclopropyl)phenyl)-3-(2-(3-hydroxy-5-((5-hydroxy-1,4,5,6-tetrahydropyrimidin-2-yl)amino)benzamido)acetamido)propanoic acid]",0.5 nM,0.1 nM,0.1 nM
"N#CC1(c2cc(Cl)cc([C@H](CC(=O)O)NC(=O)CNC(=O)c3cc(O)cc(NC4=NCC(O)CN4)c3)c2)CCOCC1 (stereo partly drawn) [Example 22, (3S)-3-(3-chloro-5-(4-cyanotetrahydro-2H-pyran-4-yl)phenyl)-3-(2-(3-hydroxy-5-((5-hydroxy-1,4,5,6-tetrahydropyrimidin-2-yl)amino)benzamido)acetamido)propanoic acid]",0.4 nM,0.3 nM,0.3 nM
"N#CC1(c2cc(Cl)cc([C@H](CC(=O)O)NC(=O)CNC(=O)c3cc(O)cc(NC4=NCC(O)CN4)c3)c2)CCC1 (stereo partly drawn) [Example 21, (3S)-3-(3-chloro-5-(1-cyanocyclobutyl)phenyl)-3-(2-(3-hydroxy-5-((5-hydroxy-1,4,5,6-tetrahydropyrimidin-2-yl)amino)benzamido)acetamido)propanoic acid]",0.4 nM,0.3 nM,0.3 nM
"CC(O)(c1cc(Cl)cc([C@H](CC(=O)O)NC(=O)CNC(=O)c2cc(O)cc(NC3=NCC(O)CN3)c2)c1)C(F)(F)F (stereo partly drawn) [Example 23, (3S)-3-(3-chloro-5-(1,1,1-trifluoro-2-hydroxypropan-2-yl)phenyl)-3-(2-(3-hydroxy-5-((5-hydroxy-1,4,5,6-tetrahydropyrimidin-2-yl)amino)benzamido)acetamido)propanoic acid]",0.5 nM,0.3 nM,0.4 nM
